System: CD34+ cells from CML patients
Assay: Annexin V apoptosis assay, CML CD34+ cells
Type: cell-based
Conditions: Homo sapiens, 24 h
Procedure: Blood samples were taken (venipuncture, EDTA-K2 Vacutainer tubes, Becton Dickinson, Franklin Lakes, NJ, USA) from 8 chronic phase CML patients (CML1–CML8; 4 men and 4 women, aged 39–79) diagnosed at the Department of Hematology, University Clinical Center, Medical University of Warsaw, following their written consent. The diagnosis was carried out by qualified clinical staff based on an interview, blood parameters and molecular tests detecting BCR-ABL1 (transcript b3a2). Peripheral blood mononuclear cells were immediately isolated from the fresh blood sample using standard protocol (Supplementary Methods). […]
Cells were seeded in 6-well plates (K562 or K562-MDR1) or in 24-well plates (CD34^+ cells). […] After a further 24 h, cells were stained using the Annexin V-FITC kit for the detection of apoptosis (BD, Franklin Lakes, NJ, USA) and immediately analyzed on a BD FACSCalibur using CellQuest software (BD, Franklin Lakes, NJ, USA). […]
incubated overnight at 37 °C and analyzed using an iMark Microp late absorbance reader (Bio-Rad, Hercules, CA, USA). Results were calculated relative to control cells treated with DMSO only.
[…] Stained cells were immediately analyzed on a BD FACSCalibur using CellQuest softwa re (BD, Franklin Lakes, NJ, USA). […]

`CCC12C(=O)C(CC)(C(c3ccccc3)=C1c1ccccc1)C1C(=O)N(CC(O)CNC(C)C)C(=O)C12` (centres unmarked) [BK124.1, 4-[2-hydroxy-3-(propan-2-ylamino)propyl]-1,7-diethyl-8,9-diphenyl-4-azatricyclo [5.2.1.02,6]dec-8-ene-3,5,10-trione] was tested, and the viability at […] (2.5 µM) was 10% and the viability at 5 µM (5 µM) was 5%.

From publication PMC9332833 (Cancers, 2022)
